Assay results from patent publication US20260217672A1, “BENZAMIDE COMPOUNDS FOR TREATMENT OF BACTERIAL INFECTIONS” (Hoffmann-La Roche Inc., priority 2022, published 2026).
Converted amounts (≈) assume the structure as drawn.

Key:
[1] = system: Escherichia coli ATCC 25922; assay: Minimal Inhibitory Concentration (MIC) broth dilution assay; format: cell-based; conditions: ATCC25922, 20 h, read-out: MIC Escherichia coli ATCC 25922
Protocol: (§1) The antibacterial activity of the compounds of the present invention was evaluated against the commonly used quality control strain Escherichia coli ATCC 25922 and the rifampin-resistant mutant strain Klebsiella pneumonia ATCC 43816. Both were originally derived from human clinical samples and are available from ATCC (American Type Culture Collection). The in vitro potency of compounds to inhibit Escherichia coli (ATCC 25922) and Klebsiella pneumonia (ATCC 43816) growth was assessed by the MIC (Minimal Inhibitory Concentration) broth dilution method. Specifically compound dilutions were prepared from 10 mM DMSO stock solutions as follows: i) serial 2-fold dilution in 20 μL DMSO were prepared in a master plate (Greiner, Cat No: 651201), ii) 180 μL sterile distilled water was added to each aliquot and iii) 10 μL diluted compounds were transferred into a new assay plate (Costar, 3599).
(§2) Vials of each test microorganisms were maintained frozen in the vapor phase of a liquid nitrogen freezer. Single-use frozen vials of the two strains Escherichia coli ATCC 25922 (KWIKSTIK, 0335K) and Klebsiella pneumonia ATCC 43816, with predetermined CFU/mL, were taken out from the freezer, thawed at room temperature, and diluted in Cation-Adjusted Mueller Hinton Broth (CAMHB) to achieve a final inoculum of 5×10^5 CFU/mL. 90 μL bacteria containing broth was dispensed to the assay plate containing the pre-dispensed compound dilutions and mixed by pipetting 5 times.
(§3) Then the assay plates were incubated for 20 hours at 35° C. in ambient air. Following incubation, the MIC ([…]), the lowest concentration of drug that inhibits visible growth of the microorganism was read with the help of a magnification mirror and recorded.

[2] = system: Klebsiella pneumonia ATCC 43816; assay: as above; format: cell-based; conditions: Klebsiella pneumoniae, ATCC43816, 20 h, read-out: MIC Klebsiella pneumoniae ATCC43816
Protocol: as §1, §2, §3

Structure (SMILES) | MIC [1] | MIC [2]
NCCCNCc1cccc(C(=O)Nc2ccc(S(=O)(=O)N3CCN(c4cc(C(F)(F)F)cc(Cl)n4)CC3)cc2)c1 [Example 024, 3-[(3-Aminopropylamino)methyl]-N-[4-[4-[6-chloro-4-(trifluoromethyl)-2-pyridyl]piperazin-1-yl]sulfonylphenyl]benzamide] | 0.48 µg/mL (≈ 0.785 µM) | 0.96 µg/mL (≈ 1.57 µM)
N#CN=S(=O)(c1ccc(NC(=O)c2cccc(CCNCCCN)c2)cc1)N1CCN(c2cc(C(F)(F)F)cc(Cl)n2)CC1 (stereo not drawn) [Example 025, 3-[2-(3-Aminopropylamino)ethyl]-N-[4-[S-[4-[6-chloro-4-(trifluoromethyl)-2-pyridyl]piperazin-1-yl]-N-cyano-sulfonimidoyl]phenyl]benzamide] | 1.3 µg/mL (≈ 2 µM) | 5.1 µg/mL (≈ 7.86 µM)
CN=S(=O)(c1ccc(NC(=O)c2cccc(CNCCCN)c2)cc1)N1CCN(c2cc(C(F)(F)F)cc(Cl)n2)CC1 (stereo not drawn) [Example 026, 3-[(3-aminopropylamino)methyl]-N-[4-[S-[4-[6-chloro-4-(trifluoromethyl)-2-pyridyl]piperazin-1-yl]-N-methyl-sulfonimidoyl]phenyl]benzamide] | 3.9 µg/mL (≈ 6.25 µM) | 7.8 µg/mL (≈ 12.5 µM)
COc1cc(NC(=O)c2cccc(CNCCCN)c2)ccc1S(=O)(=O)N1CCN(c2cc(C(F)(F)F)cc(Cl)n2)CC1 [Example 027, 3-[(3-Aminopropylamino)methyl]-N-[4-[4-[6-chloro-4-(trifluoromethyl)-2-pyridyl]piperazin-1-yl]sulfonyl-3-methoxy-phenyl]benzamide] | 4 µg/mL (≈ 6.24 µM) | 4 µg/mL (≈ 6.24 µM)
NCCCNCc1cccc(C(=O)Nc2ccc(S(=O)(=O)N3CCN(c4cc(C(F)(F)F)cc(Cl)n4)CC3)c(O)c2)c1 [Example 028, 3-[(3-Aminopropylamino)methyl]-N-[4-[4-[6-chloro-4-(trifluoromethyl)-2-pyridyl]piperazin-1-yl]sulfonyl-3-hydroxy-phenyl]benzamide] | 4.6 µg/mL (≈ 7.34 µM) | 9.3 µg/mL (≈ 14.8 µM)
NCCCNCc1ccc(C(=O)Nc2ccc(S(=O)(=O)N3CCN(c4cc(C(F)(F)F)cc(Cl)n4)CC3)cn2)cc1 [Example 029, 4-[(3-Aminopropylamino)methyl]-N-[5-[4-[6-chloro-4-(trifluoromethyl)-2-pyridyl]piperazin-1-yl]sulfonyl-2-pyridyl]benzamide] | 1.9 µg/mL (≈ 3.1 µM) | 3.8 µg/mL (≈ 6.21 µM)
COc1cc(S(=O)(=O)N2CCN(c3cc(C(F)(F)F)cc(Cl)n3)CC2)ccc1NC(=O)c1cccc(CNCCCN)c1 [Example 030, 3-[(3-Aminopropylamino)methyl]-N-[4-[4-[6-chloro-4-(trifluoromethyl)-2-pyridyl]piperazin-1-yl]sulfonyl-2-methoxy-phenyl]benzamide] | 4 µg/mL (≈ 6.24 µM) | 8 µg/mL (≈ 12.5 µM)
NCCCNCc1cccc(C(=O)Nc2ccc(S(=O)(=O)N3CCN(c4cc(C(F)(F)F)cc(Cl)n4)CC3)cc2O)c1 [Example 031, 3-[(3-Aminopropylamino)methyl]-N-[4-[4-[6-chloro-4-(trifluoromethyl)-2-pyridyl]piperazin-1-yl]sulfonyl-2-hydroxy-phenyl]benzamide] | 3.9 µg/mL (≈ 6.22 µM) | 3.9 µg/mL (≈ 6.22 µM)
Cn1cc2c(n1)CN(C(=O)Nc1ccc(S(=O)(=O)N3CCN(c4cc(C(F)(F)F)cc(Cl)n4)CC3)cc1)C2 [Example 032, N-[4-[4-[6-chloro-4-(trifluoromethyl)-2-pyridyl]piperazin-1-yl]sulfonylphenyl]-2-methyl-4,6-dihydropyrrolo[3,4-c]pyrazole-5-carboxamide] | 7.1 µg/mL (≈ 12.5 µM) | 7.1 µg/mL (≈ 12.5 µM)
Cn1ncc2c1CN(C(=O)Nc1ccc(S(=O)(=O)N3CCN(c4cc(C(F)(F)F)cc(Cl)n4)CC3)cc1)C2 [Example 033, N-[4-[4-[6-chloro-4-(trifluoromethyl)-2-pyridyl]piperazin-1-yl]sulfonylphenyl]-1-methyl-4,6-dihydropyrrolo[3,4-c]pyrazole-5-carboxamide] | 3.6 µg/mL (≈ 6.32 µM) | 3.6 µg/mL (≈ 6.32 µM)
Cn1ncc(C(=O)N2CCc3cc(S(=O)(=O)N4CCN(c5cc(C(F)(F)F)cc(Cl)n5)CC4)ccc32)c1C(=O)O [Example 035, 4-[5-[4-[6-Chloro-4-(trifluoromethyl)-2-pyridyl]piperazin-1-yl]sulfonylindoline-1-carbonyl]-2-methyl-pyrazole-3-carboxylic acid] | 3.7 µg/mL (≈ 6.18 µM) | 7.5 µg/mL (≈ 12.5 µM)
O=C(c1cnn(C2CNC2)c1)N1CCc2cc(S(=O)(=O)N3CCN(c4cc(C(F)(F)F)cc(Cl)n4)CC3)ccc21 [Example 036, [1-(Azetidin-3-yl)pyrazol-4-yl]-[5-[4-[6-chloro-4-(trifluoromethyl)-2-pyridyl]piperazin-1-yl]sulfonylindolin-1-yl]methanone] | 3.7 µg/mL (≈ 6.21 µM) | 7.4 µg/mL (≈ 12.4 µM)
NCCCn1cc(C(=O)N2CCc3cc(S(=O)(=O)N4CCN(c5cc(C(F)(F)F)cc(Cl)n5)CC4)ccc32)cn1 [Example 037, [1-(3-Aminopropyl)pyrazol-4-yl]-[5-[4-[6-chloro-4-(trifluoromethyl)-2-pyridyl]piperazin-1-yl]sulfonylindolin-1-yl]methanone] | 3.7 µg/mL (≈ 6.19 µM) | 7.5 µg/mL (≈ 12.5 µM)
O=C(c1cnn2c1CNCC2)N1CCc2cc(S(=O)(=O)N3CCN(c4cc(C(F)(F)F)cc(Cl)n4)CC3)ccc21 [Example 038, [5-[4-[6-Chloro-4-(trifluoromethyl)-2-pyridyl]piperazin-1-yl]sulfonylindolin-1-yl]-(4,5,6,7-tetrahydropyrazolo[1,5-a]pyrazin-3-yl)methanone] | 3.7 µg/mL (≈ 6.21 µM) | 7.4 µg/mL (≈ 12.4 µM)
O=C(CN1CCNCC1)Nc1ccc(S(=O)(=O)N2CCN(c3cc(C(F)(F)F)cc(Cl)n3)CC2)cc1 [Example 040, N-[4-[4-[6-chloro-4-(trifluoromethyl)-2-pyridyl]piperazin-1-yl]sulfonylphenyl]-2-piperazin-1-yl-acetamide] | 2.1 µg/mL (≈ 3.84 µM) | 8.3 µg/mL (≈ 15.2 µM)
O=C(O)c1ccccc1C(=O)N1CCc2cc(S(=O)(=O)N3CCN(c4cc(C(F)(F)F)cc(Cl)n4)CC3)ccc21 [Example 042, 2-[5-[4-[6-Chloro-4-(trifluoromethyl)-2-pyridyl]piperazin-1-yl]sulfonylindoline-1-carbonyl]benzoic acid] | 0.99 µg/mL (≈ 1.66 µM) | 2 µg/mL (≈ 3.36 µM)
Cc1cc(C(F)(F)F)nc(N2CCN(S(=O)(=O)c3ccc(NC(=O)c4cnc5c(c4)CNC5)cc3)CC2)n1 [Example 044, N-[4-[4-[4-methyl-6-(trifluoromethyl)pyrimidin-2-yl]piperazin-1-yl]sulfonylphenyl]-6,7-dihydro-5H-pyrrolo[3,4-b]pyridine-3-carboxamide] | 0.91 µg/mL (≈ 1.66 µM) | 1.8 µg/mL (≈ 3.29 µM)
Cc1cc(C(F)(F)F)cc(N2CCN(S(=O)(=O)c3ccc(NC(=O)c4cnc5c(c4)CNC5)cc3)CC2)n1 [Example 045, N-[4-[4-[6-methyl-4-(trifluoromethyl)-2-pyridyl]piperazin-1-yl]sulfonylphenyl]-6,7-dihydro-5H-pyrrolo[3,4-b]pyridine-3-carboxamide] | 0.91 µg/mL (≈ 1.66 µM) | 3.6 µg/mL (≈ 6.59 µM)
O=C(Nc1ccc(S(=O)(=O)N2CCN(c3cc(C(F)(F)F)cc(Cl)n3)CC2)cc1)c1ccc2c(c1)CNC2 [Example 046, N-[4-[4-[6-chloro-4-(trifluoromethyl)-2-pyridyl]piperazin-1-yl]sulfonylphenyl]isoindoline-5-carboxamide] | 0.47 µg/mL (≈ 0.83 µM) | 0.47 µg/mL (≈ 0.83 µM)
O=C(Nc1ccc(S(=O)(=O)N2CCN(c3cc(C(F)(F)F)cc(Cl)n3)CC2)cc1)c1cccc(N2CC3CC2CN3)c1 (stereo not drawn) [Example 047, N-[4-[4-[6-chloro-4-(trifluoromethyl)-2-pyridyl]piperazin-1-yl]sulfonylphenyl]-3-(2,5-diazabicyclo[2.2.1]heptan-2-yl)benzamide] | 1.1 µg/mL (≈ 1.77 µM) | 2.3 µg/mL (≈ 3.7 µM)
NCCOc1cccc(C(=O)Nc2ccc(S(=O)(=O)N3CCN(c4cc(C(F)(F)F)cc(Cl)n4)CC3)cc2)c1 [Example 048, 3-(2-Aminoethoxy)-N-[4-[4-[6-chloro-4-(trifluoromethyl)-2-pyridyl]piperazin-1-yl]sulfonylphenyl]benzamide] | 0.48 µg/mL (≈ 0.822 µM) | 0.97 µg/mL (≈ 1.66 µM)
O=C(Nc1ccc(S(=O)(=O)N2CCN(c3cc(C(F)(F)F)cc(Cl)n3)CC2)cc1)c1cccc(OCC2CNC2)c1 [Example 050, 3-(Azetidin-3-ylmethoxy)-N-[4-[4-[6-chloro-4-(trifluoromethyl)-2-pyridyl]piperazin-1-yl]sulfonylphenyl]benzamide] | 1 µg/mL (≈ 1.64 µM) | 1 µg/mL (≈ 1.64 µM)
N[C@@H]1CCN(c2cccc(C(=O)Nc3ccc(S(=O)(=O)N4CCN(c5cc(C(F)(F)F)cc(Cl)n5)CC4)cc3)c2)C1 [Example 051, N-[4-[4-[6-chloro-4-(trifluoromethyl)-2-pyridyl]piperazin-1-yl]sulfonylphenyl]-3-[(3R)-3-aminopyrrolidin-1-yl]benzamide] | 0.56 µg/mL (≈ 0.919 µM) | 1.1 µg/mL (≈ 1.81 µM)
NCCc1cccc(C(=O)Nc2ccc(S(=O)(=O)N3CCN(c4cc(C(F)(F)F)cc(Cl)n4)CC3)cc2)c1 [Example 053, 3-(2-Aminoethyl)-N-[4-[4-[6-chloro-4-(trifluoromethyl)-2-pyridyl]piperazin-1-yl]sulfonylphenyl]benzamide] | 0.44 µg/mL (≈ 0.775 µM) | 0.89 µg/mL (≈ 1.57 µM)
